Read-outs that look alike come from different tables or passages of the source. Where a SMILES comes first, the peptide text is derived from it.
Key:
[1] = target: HLA-B07.02 (Homo sapiens, UniProt P01889); experiment: Class I MHC peptide binding affinity (displacement of radiolabeled reference peptide)
[2] = target: HLA-A02.01 (Homo sapiens, UniProt P04439, D140Y/D185E/D98H/E176V/E277Q/G131W/G231S/I119V/I121R/I166T/I218V/L300P/L318F/N151K/N90K/P208A/P217A/Q86G/Q94H/R138H/R169H/T345S); experiment: as above; details: for Kd: EGFR T790M peptides, HLA allele A02.01
Summary of the method: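 Radiolabeled reference peptide/MHCI complexes; test peptide titration, 2 d incubation; bound label remaining read by size-exclusion gel filtration.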

[3] = target: T1, HLA-A02.01 (Homo sapiens, UniProt P04439, D140Y/D185E/D98H/E176V/E277Q/G131W/G231S/I119V/I121R/I166T/I218V/N151K/N90K/P208A/P217A/Q86G/Q94H/R138H/R169H); experiment: Class I MHC peptide binding stability (pMHC-I dissociation, 125I-labeled light chain); details: for Stability (T1/2 (h)): allele A02.01
T1 construct: made in house; host or cells: E. coli

[4] = target: HLA-A24.02; experiment: Class I MHC peptide binding affinity (displacement of radiolabeled reference peptide); design: species or system human; details: allele A24.02; read-out: Observed Affinity (IC50; (nM))
[5] = Allele B07.02, read-out: Observed Affinity (IC50, (nM))
[6] = allele A02.01, read-out: Observed Affinity (IC50, (nM))
[7] = EGFR T790M peptides, HLA allele A02.01

Row | Structure (SMILES) | IC50 [1, 5] | IC50 [2, 6] | Stability (T1/2 (h)) [3] | IC50 [4] | other results
1 | CSCC[C@H](NC(=O)[C@H](CC(C)C)NC(=O)[C@H](CCC(N)=O)NC(=O)[C@@H](N)CCSC)C(=O)N1CCC[C@H]1C(=O)N[C@@H](Cc1ccccc1)C(=O)NCC(=O)N[C@@H](CS)C(=O)N[C@@H](CC(C)C)C(=O)O | – | 166 nM | 0.4 h | – | Kd ([2]; read-out: Affinity): 0.116 µM; Kd ([1]; EGFR T790M peptides, HLA allele B07.02): 1.59 µM; Stability (half-life (hr.)) [3, 7]: 22.1 min
2 | CC[C@H](C)[C@H](N)C(=O)N[C@@H](CCSC)C(=O)N[C@@H](CCC(N)=O)C(=O)N[C@@H](CC(C)C)C(=O)N[C@@H](CCSC)C(=O)N1CCC[C@H]1C(=O)N[C@@H](Cc1ccccc1)C(=O)NCC(=O)N[C@@H](CS)C(=O)N[C@@H](CC(C)C)C(=O)O | – | 837 nM | 0.5 h | 18100 nM | Kd ([2]; read-out: Affinity): 0.653 µM; Stability (half-life (hr.)) [3, 7]: 30.94 min
3 | CC(C)C[C@H](NC(=O)[C@@H](NC(=O)[C@H](CO)NC(=O)[C@@H]1CCCN1C(=O)[C@H](CC(C)C)NC(=O)[C@H](Cc1ccccc1)NC(=O)[C@@H](NC(=O)[C@H](Cc1ccc(O)cc1)NC(=O)[C@@H](NC(=O)CN)C(C)C)[C@@H](C)O)[C@@H](C)O)C(=O)O (H-GVYTFLPSTL-OH; N-terminus and C-terminus assumed) | – | 1200 nM | 0.4 h | 7700 nM | –
4 | CC[C@H](C)[C@H](NC(=O)[C@H](CC(=O)O)NC(=O)[C@H](Cc1ccccc1)NC(=O)[C@H](CC(C)C)NC(=O)[C@@H](NC(=O)[C@H](CCC(=O)O)NC(=O)[C@@H](NC(=O)[C@H](CCSC)NC(=O)[C@@H](N)Cc1c[nH]c2ccccc12)[C@@H](C)O)[C@@H](C)O)C(=O)O (H-WMTETLFDI-OH; N-terminus and C-terminus assumed) | – | 14 nM | 4 h | 713 nM | –
5 | CSCC[C@H](NC(=O)[C@H](CC(C)C)NC(=O)[C@H](CCC(N)=O)NC(=O)[C@@H](N)CCSC)C(=O)N1CCC[C@H]1C(=O)N[C@@H](Cc1ccccc1)C(=O)NCC(=O)N[C@@H](CS)C(=O)N[C@@H](CC(C)C)C(=O)N[C@@H](CC(C)C)C(=O)O | – | 20 nM | 0.4 h | 23600 nM | Kd ([2]; read-out: Affinity): 0.0163 µM; Stability (half-life (hr.)) [3, 7]: 22.87 min
6 | CC[C@H](C)[C@H](NC(=O)[C@H](CO)NC(=O)[C@H](Cc1c[nH]c2ccccc12)NC(=O)[C@H](Cc1c[nH]cn1)NC(=O)[C@H](C)NC(=O)[C@@H]1CCCN1C(=O)[C@H](CCSC)NC(=O)[C@H](CC(C)C)NC(=O)[C@H](CO)NC(=O)[C@@H](N)CC(C)C)C(=O)O | – | 164 nM | 0.4 h | 12400 nM | –
7 | CSCC[C@H](NC(=O)[C@H](CC(C)C)NC(=O)[C@H](CO)NC(=O)[C@H](CC(C)C)NC(=O)[C@@H]1CCCN1C(=O)[C@H](CCC(N)=O)NC(=O)[C@H](CCSC)NC(=O)[C@H](CCC(N)=O)NC(=O)[C@@H](N)Cc1ccccc1)C(=O)O | – | 553 nM | 0.3 h | 14600 nM | –
8 | CC[C@H](C)[C@H](NC(=O)[C@@H]1CCCN1C(=O)[C@H](CCCNC(=N)N)NC(=O)[C@H](Cc1c[nH]c2ccccc12)NC(=O)[C@H](CC(N)=O)NC(=O)[C@H](CCSC)NC(=O)CNC(=O)CNC(=O)[C@H](CCSC)NC(=O)[C@@H](N)CS)C(=O)O | – | 346 nM | 0.4 h | 4450 nM | –
9 | CC[C@H](C)[C@H](NC(=O)[C@@H](NC(=O)[C@@H](NC(=O)[C@H](CC(C)C)NC(=O)[C@@H](NC(=O)[C@@H]1CCCN1C(=O)[C@H](CCCNC(=N)N)NC(=O)[C@H](Cc1c[nH]c2ccccc12)NC(=O)[C@H](CC(N)=O)NC(=O)[C@@H](N)CCSC)[C@@H](C)CC)[C@@H](C)O)[C@@H](C)CC)C(=O)O (H-MNWRPILTII-OH; N-terminus and C-terminus assumed) | – | 1030 nM | 0.4 h | 44900 nM | –
10 | CC[C@H](C)[C@H](NC(=O)[C@@H](NC(=O)[C@H](CC(C)C)NC(=O)[C@@H](NC(=O)[C@@H]1CCCN1C(=O)[C@H](CCCNC(=N)N)NC(=O)[C@H](CCCNC(=N)N)NC(=O)[C@H](CC(N)=O)NC(=O)[C@H](CCSC)NC(=O)[C@@H](N)CO)[C@@H](C)CC)[C@@H](C)O)C(=O)O | – | 1200 nM | 0.3 h | 16300 nM | –
11 | CSCC[C@H](NC(=O)[C@H](CCC(=O)O)NC(=O)[C@H](CCCNC(=N)N)NC(=O)[C@H](CC(C)C)NC(=O)[C@H](Cc1ccc(O)cc1)NC(=O)[C@H](CC(N)=O)NC(=O)[C@H](CC(C)C)NC(=O)[C@H](CC(C)C)NC(=O)[C@@H](N)CO)C(=O)O | – | 87 nM | 3 h | – | IC50 ([2]; BTK C481S peptide, HLA Allele A02.01, read-out: Affinity): 67.7 nM; IC50 ([1]; BTK C481S peptide, HLA Allele B07.02, read-out: Affinity): 866 nM; Stability (half-life (hr.)) ([3]; BTK C481S peptide, HLA Allele A02.01): 182.6 min
12 | CC(C)[C@H](NC(=O)[C@H](C)NC(=O)[C@@H]1CCCN1C(=O)[C@@H](NC(=O)[C@H](CCCNC(=N)N)NC(=O)[C@H](C)NC(=O)[C@@H]1CCCN1C(=O)[C@@H]1CCCN1C(=O)CN)C(C)C)C(=O)O (H-GPPARVPAV-OH; N-terminus and C-terminus assumed) | – | – | – | – | IC50 [1]: 221 nM

Now from value to compound, other results behind:

Row | IC50 [1, 5] | Structure (SMILES) | IC50 [2, 6] | Stability (T1/2 (h)) [3] | IC50 [4] | other results
13 | 48.6 nM | C[C@H](NC(=O)[C@H](C)NC(=O)[C@H](CCCNC(=N)N)NC(=O)[C@@H]1CCCN1C(=O)[C@@H]1CCCN1C(=O)[C@H](CCCNC(=N)N)NC(=O)[C@@H]1CCCN1C(=O)[C@@H]1CCCN1C(=O)CN)C(=O)N[C@@H](CS)C(=O)O (H-GPPRPPRAAC-OH; N-terminus and C-terminus assumed) | – | – | – | –
14 | 78 nM | CC(C)C[C@H](NC(=O)[C@H](CCC(N)=O)NC(=O)[C@H](CC(C)C)NC(=O)[C@H](Cc1c[nH]cn1)NC(=O)[C@H](CC(N)=O)NC(=O)[C@H](CCC(N)=O)NC(=O)[C@H](CCCNC(=N)N)NC(=O)[C@H](CO)NC(=O)[C@@H](N)CCCCN)C(=O)O (H-KSRQNHLQL-OH; N-terminus and C-terminus assumed) | – | – | – | –
15 | 32.8 nM | C[C@H](NC(=O)[C@H](C)NC(=O)[C@H](CCCNC(=N)N)NC(=O)[C@@H]1CCCN1C(=O)[C@@H]1CCCN1C(=O)[C@H](CCCNC(=N)N)NC(=O)[C@@H]1CCCN1C(=O)[C@@H]1CCCN1)C(=O)N[C@@H](CS)C(=O)O (H-PPRPPRAAC-OH; N-terminus and C-terminus assumed) | – | – | – | –
16 | 12.5 nM | CC[C@H](C)[C@H](NC(=O)[C@H](CC(N)=O)NC(=O)[C@@H](NC(=O)[C@H](CC(=O)O)NC(=O)[C@H](CCCCN)NC(=O)[C@@H]1CCCN1C(=O)[C@@H](N)CCSC)C(C)C)C(=O)N[C@@H](CCC(N)=O)C(=O)N[C@H](C(=O)O)C(C)C | – | – | – | –
17 | 826 nM | CC(C)C[C@H](NC(=O)[C@H](CC(C)C)NC(=O)[C@H](Cc1c[nH]cn1)NC(=O)CNC(=O)[C@H](CCC(N)=O)NC(=O)[C@H](CC(N)=O)NC(=O)[C@H](CCC(N)=O)NC(=O)[C@@H](NC(=O)[C@@H](N)CCCNC(=N)N)C(C)C)C(=O)O (H-RVQNQGHLL-OH; N-terminus and C-terminus assumed) | – | – | – | –
18 | 109 nM | CC(C)C[C@H](NC(=O)[C@@H]1CCCN1C(=O)[C@@H]1CCCN1C(=O)[C@@H](NC(=O)[C@@H](NC(=O)[C@H](Cc1c[nH]c2ccccc12)NC(=O)[C@H](CC(C)C)NC(=O)[C@@H](NC(=O)[C@@H]1CCCN1C(=O)[C@@H](N)CCC(N)=O)C(C)C)[C@@H](C)O)[C@@H](C)O)C(=O)O (H-QPVLWTTPPL-OH; N-terminus and C-terminus assumed) | – | – | – | –
19 | 2110 nM | CC(C)C[C@H](NC(=O)[C@H](CC(=O)O)NC(=O)[C@H](Cc1ccccc1)NC(=O)[C@@H]1CCCN1C(=O)[C@@H](NC(=O)[C@H](C)NC(=O)[C@@H]1CCCN1C(=O)[C@@H](N)C(C)C)C(C)C)C(=O)N[C@@H](Cc1c[nH]cn1)C(=O)N[C@@H](Cc1ccccc1)C(=O)O (H-VPAVPFDLHF-OH; N-terminus and C-terminus assumed) | – | – | – | –
20 | 1330 nM | CC(C)C[C@H](NC(=O)[C@H](C)NC(=O)[C@H](CC(C)C)NC(=O)[C@H](Cc1c[nH]cn1)NC(=O)[C@@H]1CCCN1C(=O)[C@H](CCC(=O)O)NC(=O)[C@@H]1CCCN1C(=O)[C@H](CC(C)C)NC(=O)[C@@H](NC(=O)[C@@H](N)Cc1c[nH]cn1)C(C)C)C(=O)O [HVLPEPHLAL] (H-HVLPEPHLAL-OH; N-terminus and C-terminus assumed) | – | – | – | –
21 | 27.9 nM | CSCC[C@H](NC(=O)[C@H](CCC(=O)O)NC(=O)[C@H](CC(C)C)NC(=O)[C@H](CC(C)C)NC(=O)[C@H](CC(C)C)NC(=O)CNC(=O)[C@H](Cc1ccc(O)cc1)NC(=O)[C@H](CC(C)C)NC(=O)[C@@H]1CCCN1C(=O)[C@@H](N)C(C)C)C(=O)O (H-VPLYGLLLEM-OH; N-terminus and C-terminus assumed) | – | – | – | –
22 | 79.5 nM | CC(C)C[C@H](NC(=O)CNC(=O)[C@H](CO)NC(=O)[C@H](CC(=O)O)NC(=O)[C@H](CCCCN)NC(=O)[C@H](CO)NC(=O)[C@H](Cc1ccc(O)cc1)NC(=O)[C@H](C)NC(=O)[C@@H]1CCCN1C(=O)[C@@H](N)Cc1ccc(O)cc1)C(=O)O (H-YPAYSKDSGL-OH; N-terminus and C-terminus assumed) | – | – | – | –
23 | 2530 nM | CC(C)C[C@H](NC(=O)[C@@H]1CCCN1C(=O)[C@@H](N)CCCNC(=N)N)C(=O)N[C@@H](CCC(N)=O)C(=O)N[C@H](C(=O)N[C@@H](Cc1c[nH]cn1)C(=O)N[C@H](C(=O)N[C@@H](CC(C)C)C(=O)N1CCC[C@H]1C(=O)N[C@@H](CCC(=O)O)C(=O)O)C(C)C)[C@@H](C)O (H-RPLQTHVLPE-OH; N-terminus and C-terminus assumed) | – | – | – | –

Source: patent US20220282217A1, “COMPOSITIONS AND METHODS FOR PREPARING T CELL COMPOSITIONS AND USES THEREOF” (priority 2019, published 2022)
